Measured values taken from patent publication US11129861B2, “Methods for treating inflammatory diseases” (OKCHUNDANG CO., LTD., priority 2017, dated 2021).

Key:
[1] = Body weight measurements, expectorant assay; assay type: in vivo, mice; details: 250 mg/kg orally
Description: One-hundred twenty one 6-week male SPF/VAF CrljOri: CD1[ICR] mice (OrientBio, Seungnam, Korea; body weight ranged in 29-32 g upon receipt) were prepared, and seven groups of 10 mice each were selected based on the body weights at 7 days after acclimatization based on the body weights (Average:34.75±1.32 g, ranged in 31.6-37.4 g), as follows. Animals husbandries were conducted as same as antitussive assay. All laboratory animals were treated according to the national regulations of the usage and welfare of laboratory animals, and approved by the Institutional Animal Care and Use Committee in Daegu Haany University (Gyeongsan, Gyeongbuk, Korea) [DHU2016-035, Apr. 22, 2016; ANNEX IV].
AR, KOG and SKOG were orally administered as same as antitussive assay, once a day for 11 days before phenol red treatment. In addition, AM was also dissolved in distilled water as 25 mg/ml concentrations, and orally administered in a volume of 10 ml/kg (as equivalence to 250 mg/kg), once a day for 11 days before phenol red treatment. In intact vehicle control mice, distilled water 10 ml/kg was orally administered, instead of AR, KOG, SKOG or AM to provide same restrain stresses, in the present experiment.
Changes of body weights and gains were measured as same methods described in Example 3.

mice [2] = experiment: Expectorant assay: secondary bronchus histopathology; assay type: in vivo; details: 250 mg/kg orally, 11 days; compared with intact vehicle control
Description: AR, KOG and SKOG were orally administered as same as antitussive assay, once a day for 11 days before phenol red treatment. In addition, AM was also dissolved in distilled water as 25 mg/ml concentrations, and orally administered in a volume of 10 ml/kg (as equivalence to 250 mg/kg), once a day for 11 days before phenol red treatment. In intact vehicle control mice, distilled water 10 ml/kg was orally administered, instead of AR, KOG, SKOG or AM to provide same restrain stresses, in the present experiment. Simultaneously, some parts of individual lung (left lateral lobes) were sampled at trachea excisions, and fixed in 10% NBF, and crossly trimmed. Then embedded in paraffin, sectioned (3˜4 μm) and stained with H&E for general histopathology or PAS (periodic acid schiff) for mucous producing cells, and after that the histopathological profiles of each sample were observed under light microscope. […] The histopathologist was blinds to group distribution when this analysis was made, and at least five repeated measurements in same histological specimens prepared were considered to calculate each mean histomorphometrical value, whenever possible, in this histopathological evaluation.

mice [3] = experiment: Expectorant assay: mucous secretions by phenol red (TLF OD, body surface redness); assay type: in vivo; details: 250 mg/kg orally, 11 days
Description: One-hundred twenty one 6-week male SPF/VAF CrljOri: […] Animals husbandries were conducted as same as antitussive assay. All laboratory animals were treated according to the national regulations of the usage and welfare of laboratory animals, and approved by the Institutional Animal Care and Use Committee in Daegu Haany University (Gyeongsan, Gyeongbuk, Korea) [[…] and SKOG were orally administered as same as antitussive assay, once a day for 11 days before phenol red treatment. In addition, AM was also dissolved in distilled water as 25 mg/ml concentrations, and orally administered in a volume of 10 ml/kg (as equivalence to 250 mg/kg), once a day for 11 days before phenol red treatment. In intact vehicle control mice, distilled water 10 ml/kg was orally administered, instead of AR, KOG, SKOG or AM to provide same restrain stresses, in the present experiment. Mucous secretions were measured by single intraperitoneal injection of 5% phenol red (Junsei Chemical Co. […] After ultrasonic for 15 min using ultrasonicator (Model 5210, Branson Ultrasonics, Danbury, Conn., USA), 1 ml NaHCO3 solution (5%, w/v) add to the normal saline, and optical density of these prepared trachea lavage fluid (TLF) were measured at 546 nm using a microplate reader (Model Sunrise, Tecan, Männedorf, Switzerland) as described previously with some modifications.

[4] = Body weight measurements, anti-inflammatory assay; assay type: in vivo, mice; details: 1 mg/kg orally
Description: (§1) One-hundred thirty two 6-week male SPF/VAF CrljOri:CD1 [ICR] mice (OrientBio, Seungnam, Korea; body weight ranged in 29-32 g upon receipt) were prepared, and eight groups of 10 mice each were selected based on the body weights at 7 days after acclimatization based on the body weights (intact control: 33.88±1.11 g, ranged in 31.8˜35.4 g; Xylene treated mice: 33.85±1.32 g, ranged in 31.1-36.6 g), as follows. Animals husbandries were conducted as same as antitussive and expectorant assays. All laboratory animals were treated according to the national regulations of the usage and welfare of laboratory animals, and approved by the Institutional Animal Care and Use Committee in Daegu Haany University (Gyeongsan, Gyeongbuk, Korea) [DHU2016-036, Apr. 22, 2016; ANNEX V].
AR, KOG and SKOG were orally administered as same as antitussive and expectorant assays, once a day for 11 days before xylene topical applications. In addition, DEXA-water soluble granules were dissolved indistilled water as 1.5 mg/ml concentrations (0.1 mg/ml based on DEXA itself), and also orally administered in a volume of 10 ml/kg (as equivalence to 1 mg/kg based on DEXA itself), once a day for 11 days before xylene topical applications. In intact vehicle and xylene control mice, distilled water 10 ml/kg was orally administered, instead of AR, KOG, SKOG or DEXA to provide same restrain stresses, in the present experiment.
Changes of body weights and gains were measured as same methods described in Example 3 and 4.

[5] = test system: xylene topically applied mice; experiment: Anti-inflammatory assay: ear histopathology; assay type: in vivo; details: 1 mg/kg orally, 11 days; compared with xylene control mice
Description: Acute inflammations were induced by single topical application of 0.03 ml of xylene (Duksan Pure Chemical Co. Ltd., Ansan, Korea) to the anterior surface of the right ear at 1 hour after last 11th test substance administration, as described previously with some modifications. Equal volume of saline was topically applied in intact vehicle mouse ears, instead of xylene, in our experiment.
After ear weight measurement, individual ear samples were fixed in 10% NBF, and crossly trimmed. Then embedded in paraffin, sectioned (3˜4 μm) and stained with Hematoxylin and eosin (H&E) for general histopathology or toluidine blue for mast cells, and after that the histopathological profiles of each sample were observed under light microscope. To more detail changes, mean total, epidermis and dermis thicknesses of the ear anterior surface, numbers of infiltrated inflammatory cells and mast cells on the dermis of ear (cells/mm^2), collagen occupied region percentages on the dermis (%/mm2) were analyzed using a computer assisted image analysis program, according to previously established methods, respectively. The histopathologist was blinds to group distribution when this analysis was made, and at least five repeated measurements in same histological specimens prepared were considered to calculate each mean histomorphometrical value, whenever possible, in this histopathological evaluation.

[6] = test system: xylene topically applied mice; experiment: Anti-inflammatory assay: xylene-induced ear inflammation, ear weight and gross signs; assay type: in vivo; details: 1 mg/kg orally, 11 days; compared with xylene control mice
Description: as §1
AR, KOG and SKOG were orally administered as same as antitussive and expectorant assays, once a day for 11 days before xylene topical applications. […]
Two hours after topical application of xylene, circular sections of induced ear were taken using a cork borer with a 7-mm diameter and weighed as absolute wet-weights, and then the relative weights (% of bodyweights) of the ears were calculated to reduce the differences from individual body weights, as follow Equation [2], in the current experiment. […]

[7] = compared with intact vehicle control
[8] = 11 days, xylene topically applied mice

SMILES: Nc1c(Br)cc(Br)cc1CN[C@H]1CC[C@H](O)CC1 [AM, ambroxol]
- Body weight gains (g) [B − A] ([1]; 11 days, expectorant assay): 1.99 ± 0.73 g
- Body weights (g) at test material administration First [A] ([1]; 11 days, expectorant assay): 29.23 ± 1.16 g
- Body weights (g) at test material administration Last [B] ([1]; 11 days, expectorant assay): 31.22 ± 1.65 g
- body weight gains during 11 days, change [1, 7]: 6.42%
- Mean numbers of secondary bronchus epithelial PAS positive mucous producing cells, change (mice [2]): 231.58%
- Mean thicknesses of secondary bronchus mucosa, change (mice [2]): 41.69%
- body redness (body surface gross findings) (mice [3]; 30 min after intraperitoneal injection of phenol red, vs intact control): dramatic increases of body redness
- TLF OD values, change (mice [3]; [7]): 33.95%

SMILES: C[C@@H]1C[C@H]2[C@@H]3CCC4=CC(=O)C=C[C@]4(C)[C@@]3(F)[C@@H](O)C[C@]2(C)[C@@]1(O)C(=O)CO [DEXA, dexamethasone]
- body weight gains during 11 days, change ([4]; 11 days, compared with xylene control mice): −145.10%
- Body weight gains (g) [B − A] [4, 8]: −0.92 ± 0.76^ab g
- Body weights (g) at test material administration First [A] [4, 8]: 28.72 ± 1.10 g
- Body weights (g) at test material administration Last [B] [4, 8]: 27.80 ± 1.66^ab g
- body weights during administration period ([4]; from 2 days after initial administration, compared with intact vehicle and xylene control mice): significant (p<0.01 or p<0.05) decreases of body weights
- Mean ear dermis thicknesses, change [5]: −60.02%
- Mean ear epidermis thicknesses, change [5]: −6.35%
- Mean numbers of infiltrated inflammatory cells on the ear dermis, change [5]: −93.13%
- Mean numbers of infiltrated mast cells on the ear dermis, change [5]: 647.56%
- Mean percentages of collagen occupied regions on the ear dermis, change [5]: 189.63%
- Mean total ear thicknesses, change [5]: −62.39%
- absolute ear weights, change [6]: −48.52%
- relative ear weights, change [6]: −42.61%
